Data reported in article PMC8612954 (Chemosphere, 2021).
Read-outs that look alike come from different tables or passages of the source.

Legend:
[1] = target: T1, bovine serum albumin (BSA) (Bos taurus, UniProt P02769); assay: Equilibrium dialysis; assay type: binding; settings: for f (fraction of bound PFAS) / KPW (protein/water partition coefficient): 37°C, standard error in parentheses; for f (fraction of bound PFAS): 10 µM BSA in PBS
[2] = target: T1, bovine serum albumin (BSA); settings: ref Allendorf et al. (2019), cited from earlier work; for Ka (association constant): PFAS-BSA binding
[3] = target: T1, bovine serum albumin (BSA); assay: Fluorescence quenching of BSA by PFAS; assay type: binding; settings: for nHill (Hill coefficient, binding cooperativity): Hill model fit, 25°C and 35°C, independent of temperature; for shift in wavelength of maximum fluorescence emission of BSA: maximum shift on PFAS binding (Figure S5)
serum albumin = settings: ref Bischel et al. (2011); cited from earlier work

T1 sequence (P02769 25-607): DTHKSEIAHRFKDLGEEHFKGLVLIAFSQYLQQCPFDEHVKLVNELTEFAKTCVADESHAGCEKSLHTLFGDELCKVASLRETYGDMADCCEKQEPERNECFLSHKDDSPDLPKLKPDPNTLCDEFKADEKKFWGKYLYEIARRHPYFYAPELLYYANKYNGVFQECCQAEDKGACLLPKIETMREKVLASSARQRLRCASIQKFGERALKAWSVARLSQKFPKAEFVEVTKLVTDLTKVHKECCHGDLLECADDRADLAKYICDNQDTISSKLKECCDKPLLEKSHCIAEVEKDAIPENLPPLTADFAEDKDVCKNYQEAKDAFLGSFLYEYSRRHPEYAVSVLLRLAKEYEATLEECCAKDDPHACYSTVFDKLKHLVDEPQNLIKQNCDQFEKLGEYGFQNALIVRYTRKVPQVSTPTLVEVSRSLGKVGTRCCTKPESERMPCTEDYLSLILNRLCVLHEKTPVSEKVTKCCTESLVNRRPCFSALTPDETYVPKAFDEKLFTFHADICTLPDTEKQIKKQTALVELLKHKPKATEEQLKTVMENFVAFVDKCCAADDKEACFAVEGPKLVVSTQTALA

**Q.** Which results are given for `O=C(O)C(F)(F)C(F)(F)C(F)(F)C(F)(F)C(F)(F)C(F)(F)C(F)(F)C(F)(F)F` [PFNA, perfluorononanoic acid]?
**A.** f (fraction of bound PFAS) [1]: 0.975 (0.005); KPW (protein/water partition coefficient) ([1]; PFAS:BSA molar ratio 0.1:1): 8.52 (1.62) 10^5; Ka (association constant) [2]: 14 (2.2) 10^5 M^−1; nHill (Hill coefficient, binding cooperativity) [3]: noncooperative; shift in wavelength of maximum fluorescence emission of BSA [3]: −13 nm

**Q.** Which Kd [1] does the source give for `O=C(O)C(F)(F)C(F)(F)C(F)(F)C(F)(F)C(F)(F)C(F)(F)C(F)(F)F` [PFOA, perfluorooctanoic acid] here?
**A.** The Kd was 2.65 µM.

**Q.** What about the “f (fraction of bound PFAS)” value [1] of the same compound?
**A.** The value was 0.755 (0.038).

**Q.** And the “KPW (protein/water partition coefficient)” value ([1]; PFAS:BSA molar ratio 0.1:1)?
**A.** The value was 0.66 (0.13) 10^5.

**Q.** And the “Ka (association constant)” value [2]?
**A.** Its value is 11 (1.1) 10^5 M^−1.

**Q.** And the “f (fraction of bound PFAS)” value [2]?
**A.** Its value is 0.44.

**Q.** What about the “f (fraction of bound PFAS)” value (serum albumin) of the same compound?
**A.** Its value is no less than 0.99.

**Q.** What about the “nHill (Hill coefficient, binding cooperativity)” value (from here on “nHill”) [3] of the same compound?
**A.** The value was “positive binding cooperativity”.

**Q.** What does the source list for `O=C(O)C(F)(OC(F)(F)C(F)(F)C(F)(F)F)C(F)(F)F` (stereo not shown) [Gen X, 2,3,3,3-tetrafluoro-2-(heptafluoropropoxy)propanoate]?
**A.** f (fraction of bound PFAS) [1]: 0.265 (0.006); KPW (protein/water partition coefficient) ([1]; PFAS:BSA molar ratio 2:1): 0.07 (0.002) 10^5; Ka (association constant) [2]: 0.23 (0.05) 10^5 M^−1; nHill (Hill coefficient, binding cooperativity) [3]: noncooperative; shift in wavelength of maximum fluorescence emission of BSA [3]: do not show marked shifts

**Q.** Which Kd [1] does the source give for `O=S(=O)(O)C(F)(F)C(F)(F)C(F)(F)C(F)(F)C(F)(F)C(F)(F)F` [PFHxS, perfluorohexanesulfonic acid] here?
**A.** Its Kd is 1.54 µM.

**Q.** And the “f (fraction of bound PFAS)” value [1]?
**A.** The value was 0.842 (0.008).

**Q.** And the “KPW (protein/water partition coefficient)” value ([1]; PFAS:BSA molar ratio 0.1:1)?
**A.** The value was 1.11 (0.06) 10^5.

**Q.** What about the “Ka (association constant)” value [2] of the same compound?
**A.** Its value is 44 (3.5) 10^5 M^−1.

**Q.** What about the “f (fraction of bound PFAS)” value [2] of the same compound?
**A.** Its value is 0.62.

**Q.** And the “f (fraction of bound PFAS)” value (serum albumin)?
**A.** Its value is no less than 0.99.

**Q.** And the “nHill” value [3]?
**A.** The value was “positive binding cooperativity”.

**Q.** And the “shift in wavelength of maximum fluorescence emission of BSA” value (shortened to “shift in wavelength”) [3]?
**A.** The value was −10 nm.

**Q.** Which “f (fraction of bound PFAS)” value [1] does the source give for `O=S(=O)(O)C(F)(F)C(F)(F)C(F)(F)C(F)(F)F` [PFBS, perfluorobutanesulfonic acid] here?
**A.** The value was 0.249 (0.064).

**Q.** And the “KPW (protein/water partition coefficient)” value ([1]; PFAS:BSA molar ratio 2:1)?
**A.** Its value is 0.07 (0.02) 10^5.

**Q.** What about the “Ka (association constant)” value [2] of the same compound?
**A.** Its value is 1.1 (0.28) 10^5 M^−1.

**Q.** What about the “f (fraction of bound PFAS)” value [2] of the same compound?
**A.** Its value is 0.44.

**Q.** And the “f (fraction of bound PFAS)” value (serum albumin)?
**A.** The value was no less than 0.99.

**Q.** What about the “fa (fractional accessibility, modified Stern-Volmer equation)” value ([3]; 1.25 µM BSA, pH 7.4 PBS, values from Table S3) of the same compound?
**A.** The value was ~ 0.3.

**Q.** What about the “nHill” value [3] of the same compound?
**A.** Its value is less than 1.

**Q.** What about the “shift in wavelength” value [3] of the same compound?
**A.** The value was “do not show marked shifts”.

**Q.** For `O=C(O)C(F)(F)C(F)(F)C(F)(F)C(F)(F)C(F)(F)C(F)(F)C(F)(F)C(F)(F)C(F)(F)F` [PFDA, perfluorodecanoic acid], which “f (fraction of bound PFAS)” value [1] is on record?
**A.** The value was 0.983 (0.004).

**Q.** What about the “KPW (protein/water partition coefficient)” value ([1]; PFAS:BSA molar ratio 0.1:1) of the same compound?
**A.** Its value is 12.66 (3.23) 10^5.

**Q.** What about the “Ka (association constant)” value [2] of the same compound?
**A.** The value was 36 (3.1) 10^5 M^−1.

**Q.** What about the “nHill” value [3] of the same compound?
**A.** Its value is less than 1.

**Q.** And the “shift in wavelength” value [3]?
**A.** The value was −10 nm.

**Q.** What does the source list for `O=S(=O)(O)C(F)(F)C(F)(F)C(F)(F)C(F)(F)C(F)(F)C(F)(F)C(F)(F)C(F)(F)F` [PFOS, perfluorooctanesulfonic acid]?
**A.** f (fraction of bound PFAS) [1]: 0.942 (0.004); KPW (protein/water partition coefficient) ([1]; PFAS:BSA molar ratio 0.1:1): 3.39 (0.27) 10^5; Ka (association constant) [2]: 32 (4.9) 10^5 M^−1; nHill (Hill coefficient, binding cooperativity) [3]: positive binding cooperativity; shift in wavelength of maximum fluorescence emission of BSA [3]: −7 nm
